This note sets out measurements from patent US20070249591A1, “Biaryl Amino Acids and Their Use in Dna Binding Oligomers” (Spirogen Limited, priority 2004, published 2007).

The test system of the test is MS2 DNA sequence. As to the kind of experiment: DNA footprinting study against the MS2 DNA sequence. Format: binding, bacteriophage. Conditions: cleavage pattern on electrophoresis gel. The procedure:
In order to assess the binding of test compounds to DNA, a footprinting study against the MS2 DNA sequence was carried out. The sequence is as follows:
and is derived from a bacteriophage.
The footprinting technique in the context of DNA allows the determination of binding sites for drugs or biological macromolecules. It relies on the fact that DNA is cleaved relatively non-specifically by free radicals (e.g. hydroxyl radical footprinting) or enzymes (e.g. DNase I footprinting). Thus if DNA is 32p end labelled on one strand (so that it may be observed autoradiographically) and exposed to the cleavage agent for a certain time, then a laddering pattern may be seen when the resulting fragments are separated by gel electrophoresis (separation on the basis of size). If a compound which binds to DNA is added prior to the cleavage agent then this hinders access of the enzyme or radical to the DNA and blocks cleavage at the molecule binding site. Thus if the compound binds discretely then a specific cleavage block should be seen on the gel relative to the DNA not treated with compound, which is termed the ‘footprint’. (see FIG. 1)

Regarding `CCOC(=O)c1csc(-c2ccc(NC(=O)c3csc(-c4ccc(NC(=O)CCCN(C)C)cc4)n3)cc2)n1` [Compound 9, Ethyl 2-[4-({2-[4-(4-dimethylaminobutyrylamino)phenyl]thiazole-4-carbonyl}amino)phenyl]thiazole-4-carboxylate], the coating event entry is on record as “no clear coating event” and the specific footprinting activity result is on record as “no specific footprinting activity”.
